ChEMBL document CHEMBL1137930, “Critical structural motif for the catalytic inhibition of human topoisomerase II by UK-1 and analogs” (Bioorg Med Chem Lett, 2004)

Tests used:
[1] = target: T1, DNA topoisomerase 2-alpha (Homo sapiens, UniProt P11388); assay: Inhibitory activity of compound against human DNA topoisomerase II, alpha was evaluated by ability to interfere with the relaxation of supercoiled plasmid DNA
PC-3 = assay: Cytotoxicity of compound against PC-3 cell line; assay type: functional, cell-based; conditions: Homo sapiens
HL-60 = assay: Cytotoxicity of compound against HL60 cell line; assay type: functional, cell-based; conditions: Homo sapiens
P388 = assay: Inhibitory activity of compound against P388 murine cell line; range is 0.3 uM-1.6 uM; assay type: functional, cell-based; conditions: Mus musculus
[2] = target: T1, DNA topoisomerase 2-alpha; assay: Inhibitory concentration against human DNA topoisomerase II, alpha mediated relaxation of pBR322
[3] = target: T1, DNA topoisomerase 2-alpha; assay: Inhibitory concentration against human DNA topoisomerase II, alpha mediated relaxation of pBR322; no measurable activity

T1 sequence (P11388 whole entry): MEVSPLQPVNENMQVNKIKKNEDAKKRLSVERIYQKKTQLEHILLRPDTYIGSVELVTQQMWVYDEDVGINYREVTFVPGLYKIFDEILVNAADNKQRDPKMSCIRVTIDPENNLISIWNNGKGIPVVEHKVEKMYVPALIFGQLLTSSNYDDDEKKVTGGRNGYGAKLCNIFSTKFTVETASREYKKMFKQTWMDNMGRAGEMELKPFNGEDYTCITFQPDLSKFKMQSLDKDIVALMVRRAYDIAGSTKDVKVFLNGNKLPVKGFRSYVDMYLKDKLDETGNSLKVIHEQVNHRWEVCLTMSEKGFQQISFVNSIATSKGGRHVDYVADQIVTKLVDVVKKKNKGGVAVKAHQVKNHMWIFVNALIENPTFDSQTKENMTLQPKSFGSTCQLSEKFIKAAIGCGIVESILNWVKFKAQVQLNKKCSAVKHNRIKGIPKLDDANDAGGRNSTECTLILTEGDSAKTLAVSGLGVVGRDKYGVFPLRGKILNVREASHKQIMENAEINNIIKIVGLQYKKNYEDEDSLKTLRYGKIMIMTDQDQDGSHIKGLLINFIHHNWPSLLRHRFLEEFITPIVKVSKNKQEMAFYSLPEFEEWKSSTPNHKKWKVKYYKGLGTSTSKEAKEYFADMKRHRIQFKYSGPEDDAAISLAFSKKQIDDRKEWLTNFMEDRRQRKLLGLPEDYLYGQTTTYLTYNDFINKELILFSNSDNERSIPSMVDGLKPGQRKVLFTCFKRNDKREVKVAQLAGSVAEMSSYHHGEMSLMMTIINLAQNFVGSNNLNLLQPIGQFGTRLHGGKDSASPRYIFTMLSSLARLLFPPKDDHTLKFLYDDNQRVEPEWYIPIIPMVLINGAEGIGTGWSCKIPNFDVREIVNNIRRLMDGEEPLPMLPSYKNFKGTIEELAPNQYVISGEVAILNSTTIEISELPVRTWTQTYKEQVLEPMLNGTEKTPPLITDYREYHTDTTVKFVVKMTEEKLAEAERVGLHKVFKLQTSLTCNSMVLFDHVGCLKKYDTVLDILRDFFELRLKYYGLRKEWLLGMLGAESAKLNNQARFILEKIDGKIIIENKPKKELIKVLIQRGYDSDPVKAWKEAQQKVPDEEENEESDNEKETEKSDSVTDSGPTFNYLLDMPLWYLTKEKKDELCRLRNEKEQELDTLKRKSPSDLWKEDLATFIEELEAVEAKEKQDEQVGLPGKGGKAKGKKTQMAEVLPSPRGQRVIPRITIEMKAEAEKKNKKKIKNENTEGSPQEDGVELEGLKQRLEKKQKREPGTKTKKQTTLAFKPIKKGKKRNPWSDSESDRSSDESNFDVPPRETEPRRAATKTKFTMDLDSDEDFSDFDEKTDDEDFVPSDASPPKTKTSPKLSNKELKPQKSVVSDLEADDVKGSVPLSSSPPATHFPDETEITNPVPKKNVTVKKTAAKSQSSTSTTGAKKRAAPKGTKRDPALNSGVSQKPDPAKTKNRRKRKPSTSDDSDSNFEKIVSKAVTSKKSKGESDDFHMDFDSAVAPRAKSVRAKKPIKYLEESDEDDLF

Row | Compound | IC50 [1] [µM] | IC50 (PC-3) [µM] | IC50 (HL-60) [µM] | IC50 (P388) [µM] | IC50 [2] [µM] | IC50 [3] [µM]
1 | COC(=O)c1cccc2oc(-c3cccc4oc(-c5ccccc5O)nc34)nc12 | 32 | 0.4 | 0.32 | 0.3 | 50 | 
2 | c1ccc(-c2nc3c(-c4nc5ccccc5o4)cccc3o2)cc1 |  |  |  |  |  | > 100
3 | Oc1ccccc1-c1nc2c(-c3nc4ccccc4o3)cccc2o1 | 20 |  |  |  | 20 | 
4 | COC(=O)c1cccc2oc(-c3cccc4oc(-c5ccccc5)nc34)nc12 |  |  |  |  | 38 | 
